We go through eleven compounds from ChEMBL document CHEMBL1201862, “PubChem BioAssay data set” (2004).

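Interpolation was linear, between the two tested concentrations surrounding the appropriate level; five concentrations were tested over 48 hours in 96-well plates. GI50 marks 50% less growth.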 Calls of active or inactive are those of the source. Rule as the data show it: active = GI50 up to about 1.1 µM and inactive = higher. Where a SMILES comes first, the peptide text is derived from it. Bridges are numbered along the chain shown (N, C = ends). [ ]: non-standard residue; d: D form. The star is where a group is joined. ξ: configuration not given here. PhAc = O=C(Cc1ccccc1)*; ξP = O=C(O)C1CCCN1

As usually defined, the GI50 is the concentration at which growth is held to half of that of the control.

Some test systems named below: SNB-19; SF-268; NCI-H460; OVCAR-8; HT-29; SNB-75; RPMI-8226; SK-MEL-28; SK-MEL-2; SF-539; Malme-3M; HOP-62; KM12; EKVX; RXF 393; SW-620; MDA-MB-435; T47D; HL-60; BT-549.
Test in all cases: DTP human tumour cell line panel, 48 h

Take `C=[N+](CNC(=O)CNC(=O)C(Cc1ccccc1)NC(=O)OC(C)(C)C)C(=O)CNC(=O)C(Cc1ccccc1)NC(=O)OC(C)(C)C` (stereo unspecified): the GI50 in the assay with SNB-19, in the assay on SF-268, in the assay on NCI-H460, with OVCAR-8, with HT-29 and with SNB-75 was > 100 µM (inactive) each time. For the same compound, the GI50 in the assay with RPMI-8226, with SK-MEL-28, with SK-MEL-2, in the assay on SF-539, with Malme-3M and in the assay on HOP-62 was > 100 µM (inactive) throughout. Also, the GI50 in the assay with KM12, with EKVX, in the assay with RXF 393, with SW-620, in the assay with MDA-MB-435 and in the assay with T47D was > 100 µM (inactive) in each case.

As for `C[C@]12CCC(O)CC1=CC[C@@H]1[C@@H]2CC[C@]2(C)C(O)[C@H](n3ccnc3)C[C@@H]12` (stereo partly specified), the GI50 is 90.4 µM (inactive) with SNB-19; > 100 µM (inactive) with SF-268; 24.8 µM (inactive) in the assay with NCI-H460; > 100 µM (inactive) in the assay with OVCAR-8; 8.17 µM (inactive) in the assay with HT-29; > 100 µM (inactive) in the assay with SNB-75. The GI50 with RPMI-8226 was 22.4 µM (inactive); in the assay on SK-MEL-28, > 100 µM (inactive); in the assay with SK-MEL-2, 52.1 µM (inactive); in the assay on HL-60, 11.1 µM (inactive); in the assay on SF-539, 64.1 µM (inactive); in the assay on Malme-3M, > 100 µM (inactive). The GI50 in the assay on KM12 is 56.2 µM (inactive); in the assay with EKVX, > 100 µM (inactive); with RXF 393 it was 55.1 µM (inactive); in the assay on SW-620, > 100 µM (inactive); in the assay on MDA-MB-435 it was 75 µM (inactive).

Take `CCCN(CCCC(NC(C)=O)C(=O)NCc1ccccc1)C(=O)NCCCl` (stereo unspecified): the GI50 in the assay on SNB-19, in the assay on SF-268, with NCI-H460, in the assay with OVCAR-8, in the assay with HT-29 and in the assay on SNB-75 was > 100 µM (inactive) in each case. The GI50 with RPMI-8226, in the assay with SK-MEL-28, in the assay on SK-MEL-2, in the assay on HL-60, in the assay with SF-539 and with Malme-3M was > 100 µM (inactive) throughout. The GI50 in the assay on HOP-62, with KM12, in the assay on EKVX, with RXF 393 and in the assay with SW-620 was > 100 µM (inactive) in each case.

With `O=C(NC1CCC(=O)N1C(=O)OCc1ccccc1)OCc1ccccc1` (stereo unspecified), the GI50 with BT-549, in the assay with SNB-19, with SF-268, with NCI-H460, in the assay on OVCAR-8 and in the assay with HT-29 was > 100 µM (inactive) throughout. Moreover, the GI50 was 77.6 µM (inactive) in the assay with SNB-75; > 100 µM (inactive) in the assay with RPMI-8226; > 100 µM (inactive) in the assay on SK-MEL-28; > 100 µM (inactive) in the assay with SK-MEL-2; > 100 µM (inactive) in the assay with SF-539; > 100 µM (inactive) in the assay with Malme-3M. In addition, the GI50 in the assay on HOP-62, in the assay with KM12, in the assay with RXF 393, in the assay with SW-620 and with MDA-MB-435 was > 100 µM (inactive) each time.

Regarding `CC(NC(=O)OC(C)(C)C)C(=O)C(N)=O` (stereo unspecified), the GI50 in the assay on SNB-19, with SF-268, in the assay with NCI-H460, in the assay on OVCAR-8, in the assay on SNB-75 and in the assay on RPMI-8226 was > 100 µM (inactive) in each case. Moreover, the GI50 in the assay with SK-MEL-28, in the assay with SK-MEL-2, in the assay with HL-60, in the assay on SF-539, with HOP-62 and in the assay on EKVX was > 100 µM (inactive) each time. Further, the GI50 in the assay with SW-620, with MDA-MB-435 and with T47D was > 100 µM (inactive) each time.

For the compound `O=C1C=C(Nc2ccc(S(=O)(=O)Nc3ncccn3)cc2)c2ccccc2C1=O`, the GI50 in the assay with SNB-19 was 31.2 µM (inactive); in the assay with SF-268 it was 28.5 µM (inactive); with NCI-H460, 20.7 µM (inactive); in the assay on OVCAR-8, 20.2 µM (inactive); in the assay on HT-29, 22.6 µM (inactive); with SNB-75 it was 25.1 µM (inactive). Moreover, the GI50 is 37.6 µM (inactive) in the assay on RPMI-8226; 26 µM (inactive) in the assay on SK-MEL-28; 18.4 µM (inactive) in the assay on SK-MEL-2; 25.4 µM (inactive) with HL-60; 27.3 µM (inactive) with SF-539; 23.9 µM (inactive) in the assay on Malme-3M. The GI50 in the assay on HOP-62 is 24.5 µM (inactive); with KM12 it was 18.4 µM (inactive); with EKVX, 24.7 µM (inactive); with RXF 393 it was 23.3 µM (inactive); in the assay with SW-620 it was 19.5 µM (inactive).

With `CSc1nc2c3ccccc3ccn2c1C(=O)N/N=C/c1ccccc1`, the GI50 was 19.7 µM (inactive) in the assay on SF-268; 17.3 µM (inactive) in the assay on NCI-H460; 18.5 µM (inactive) with OVCAR-8; > 100 µM (inactive) in the assay on HT-29; > 42.7 µM (inactive) in the assay with SNB-75; > 100 µM (inactive) in the assay on RPMI-8226. The GI50 with SK-MEL-28 is > 100 µM (inactive); in the assay with SK-MEL-2 it was > 95.7 µM (inactive); with HL-60, > 100 µM (inactive); with SF-539 it was 1.43 µM (inactive); with Malme-3M it was 47.6 µM (inactive); in the assay with HOP-62 it was 13 µM (inactive). Besides, the GI50 in the assay with KM12 was > 100 µM (inactive); in the assay with EKVX it was > 100 µM (inactive); with RXF 393, 32 µM (inactive); in the assay on SW-620 it was 97.9 µM (inactive); in the assay on MDA-MB-435, > 100 µM (inactive); with T47D it was 27.9 µM (inactive).

Regarding `COc1ccc(/C=C/C(=O)c2ccc(Br)cc2)cc1`, the GI50 is > 100 µM (inactive) in the assay on SNB-19; > 100 µM (inactive) in the assay with SF-268; > 100 µM (inactive) in the assay with NCI-H460; > 100 µM (inactive) in the assay with OVCAR-8; > 100 µM (inactive) in the assay with HT-29; 93.5 µM (inactive) in the assay with SNB-75. The GI50 is 57 µM (inactive) in the assay with RPMI-8226; > 100 µM (inactive) with SK-MEL-28; > 100 µM (inactive) in the assay with SK-MEL-2; 66.8 µM (inactive) in the assay with HL-60; > 100 µM (inactive) in the assay on SF-539; > 100 µM (inactive) in the assay with Malme-3M. For the same compound, the GI50 was > 100 µM (inactive) with HOP-62; > 100 µM (inactive) in the assay with KM12; > 100 µM (inactive) in the assay on EKVX; > 100 µM (inactive) in the assay on SW-620; > 100 µM (inactive) in the assay with MDA-MB-435; 42.4 µM (inactive) with T47D.

For the compound `CCN(CC)C(=O)CCNC(C)Cc1c[nH]c2ccccc12` (stereo unspecified), the GI50 in the assay with SNB-19, in the assay on SF-268, in the assay on NCI-H460, in the assay with OVCAR-8, in the assay with HT-29 and with SNB-75 was > 100 µM (inactive) throughout. The GI50 in the assay with RPMI-8226, with SK-MEL-28, in the assay on SK-MEL-2, in the assay with HL-60, in the assay with SF-539 and in the assay with Malme-3M was > 100 µM (inactive) in each case. The GI50 in the assay with HOP-62, in the assay with KM12, with EKVX, in the assay with RXF 393, in the assay with SW-620 and in the assay on MDA-MB-435 was > 100 µM (inactive) each time. For the same compound, in the assay on T47D, the GI50 was > 100 µM (inactive).

On to `O=C(Cc1ccccc1)N[C@@H]1COC(=O)C2CCCN2C(=O)[C@@H]2CCCN2C1=O` (stereo partly specified) (PhAc-[dS]-Pro-[ξP]; ester 1-C), for which the GI50 with SNB-19 is > 100 µM (inactive); in the assay with SF-268, > 100 µM (inactive); in the assay with NCI-H460 it was > 100 µM (inactive); with OVCAR-8 it was > 100 µM (inactive); in the assay on HT-29, > 100 µM (inactive); in the assay with SNB-75 it was < 0.01 µM (active). Further, the GI50 with SK-MEL-28, with SK-MEL-2, in the assay on HL-60, in the assay on SF-539, in the assay on Malme-3M and in the assay with HOP-62 was > 100 µM (inactive) each time. Further, the GI50 in the assay on KM12, in the assay on EKVX, in the assay with RXF 393, with SW-620, in the assay on MDA-MB-435 and in the assay on T47D was > 100 µM (inactive) each time.

Consider `c1cc2c3c(c1)c1cc4c(cc1c[n+]3CC2)OCO4` [ANHYDROLYCORINIUM CHLORIDE], for which the GI50 with SNB-19 is 1.17 µM (inactive); in the assay on SF-268, 0.618 µM (active); with NCI-H460 it was 3.73 µM (inactive); in the assay with OVCAR-8, 1.33 µM (inactive); in the assay on HT-29, 7.4 µM (inactive); in the assay on SNB-75, 2.44 µM (inactive). For the same compound, the GI50 in the assay on RPMI-8226 was 2.14 µM (inactive); with SK-MEL-28, 4.82 µM (inactive); in the assay with SK-MEL-2 it was 4.26 µM (inactive); in the assay on HL-60, 6.3 µM (inactive); in the assay on SF-539, 2.48 µM (inactive); with Malme-3M, 0.871 µM (active). The GI50 in the assay on HOP-62 is 3.83 µM (inactive); with KM12, 0.582 µM (active); in the assay with EKVX it was 3.4 µM (inactive); with RXF 393, 6.12 µM (inactive); in the assay on SW-620, 1.9 µM (inactive).
